Converted amounts (≈) assume the structure as drawn. Read-outs that look alike come from different tables or passages of the source. Marks after values point to notes of the source that are not given here. Where a SMILES comes first, the peptide text is derived from it. Bridges are numbered along the chain shown (N, C = ends). [ ]: non-standard residue; d: D form. The star is where a group is joined. X2 = NC[C@@H](CC(=O)*)c1cccc(Cl)c1; Dab = NCC[C@H](N)C(=O)O; Dap = NC[C@H](N)C(=O)O
Tests used:
A.baumannii IHMA 517303 = type: cell-based, Acinetobacter baumannii; settings: compound alone; reduced susceptibility to polymyxins
K.pneumoniae IHMA520329 = type: cell-based, Klebsiella pneumoniae; settings: compound alone; reduced susceptibility to polymyxins
K.pneumonia ATCC 13882 = type: cell-based, Klebsiella pneumoniae; settings: compound alone; polymyxin-susceptible strain
[1] = Determination of kidney drug levels; type: in vivo; settings: mouse, single 17.2 mg/kg subcutaneous dose, period 4-16 hr
K. pneumoniae IHMA580884 = type: cell-based, Klebsiella pneumoniae; settings: compound alone; reduced susceptibility to polymyxins
A.baumannii NCTC 13301 = type: cell-based, Acinetobacter baumannii; settings: compound alone, polymyxin-susceptible strain
[2] = mouse; cited from earlier work
[3] = Cynomolgus monkey; cited from earlier work
P.aeruginosa ATCC 27853 = type: cell-based, Pseudomonas aeruginosa; settings: compound alone; polymyxin-susceptible strain
P.aeruginosa IHMA644636 = type: cell-based, Pseudomonas aeruginosa; settings: compound alone; reduced susceptibility to polymyxins
P.aeruginosa IHMA517175 = type: cell-based, Pseudomonas aeruginosa; settings: compound alone; reduced susceptibility to polymyxins
E.coli ATCC 25922 = type: cell-based, Escherichia coli; settings: compound alone; polymyxin-susceptible strain
A.baumannii BAA-747 = type: cell-based, Acinetobacter baumannii; settings: compound alone; polymyxin-susceptible strain
E. coli IHMA558090 = type: cell-based, Escherichia coli; settings: compound alone; reduced susceptibility to polymyxins
E.coli IHMA940398 = type: cell-based, Escherichia coli; settings: compound alone; reduced susceptibility to polymyxins
A. baumannii NCTC13301 = assay: Neutropenic mouse thigh efficacy model; type: in vivo, Acinetobacter baumannii; settings: same conditions (20mg/kg)
K.pneumoniae IHMA652780 = assay: MIC by broth microdilution; type: cell-based, Klebsiella pneumoniae; settings: compound alone; reduced susceptibility to polymyxins
[4] = Plasma exposure in the renal toxicity study; type: in vivo; settings: mouse, 25 mg/kg dose level
A.baumannii IHMA 851735 = assay: MIC by broth microdilution; type: cell-based, Acinetobacter baumannii; settings: compound alone; reduced susceptibility to polymyxins
[5] = In vivo nephrotoxicity, kidney histopathology and urinary biomarkers; set-up: species or system male CD-1 mice

| Molecule | MIC A.baumannii IHMA 517303 (A.baumannii IHMA 517303) [µg/mL] | MIC K.pneumoniae IHMA520329 (K.pneumoniae IHMA520329) [µg/mL] | MIC K.pneumonia ATCC 13882 (K.pneumonia ATCC 13882) [µg/mL] | MIC K. pneumoniae IHMA580884 (K. pneumoniae IHMA580884) [µg/mL] | MIC A.baumannii NCTC 13301 (A.baumannii NCTC 13301) [µg/mL] | MIC P.aeruginosa ATCC 27853 (P.aeruginosa ATCC 27853) [µg/mL] | MIC P.aeruginosa IHMA644636 (P.aeruginosa IHMA644636) [µg/mL] | MIC P.aeruginosa IHMA517175 (P.aeruginosa IHMA517175) [µg/mL] | MIC E.coli ATCC 25922 (E.coli ATCC 25922) [µg/mL] | MIC A.baumannii BAA-747 (A.baumannii BAA-747) [µg/mL] | MIC E. coli IHMA558090 (E. coli IHMA558090) [µg/mL] | MIC E.coli IHMA940398 (E.coli IHMA940398) [µg/mL] | further results |
| --- | --- | --- | --- | --- | --- | --- | --- | --- | --- | --- | --- | --- | --- |
| CC(C)C[C@@H]1NC(=O)[C@@H](Cc2ccccc2)NC(=O)[C@H](CCN)NC(=O)[C@@H](NC(=O)[C@H](CN)NC(=O)[C@@H](NC(=O)C[C@H](CN)c2cccc(Cl)c2)[C@@H](C)O)CCNC(=O)[C@H]([C@@H](C)O)NC(=O)[C@H](CCN)NC(=O)[C@H](CCN)NC1=O [Compound 26, SPR206] (X2-T[Dap][Dab][Dab][dF]L[Dab][Dab]T; lactam 3-C (inferred)) | >64 | 64 (≈ 55.9 µM) | 0.125 (≈ 0.109 µM) | 16 (≈ 14 µM) | 0.06 (≈ 0.0524 µM) | 0.25 (≈ 0.218 µM) | 32 (≈ 28 µM) | 8 (≈ 6.99 µM) | 0.125 (≈ 0.109 µM) | 0.125 (≈ 0.109 µM) | 8 (≈ 6.99 µM) | 32 (≈ 28 µM) | AUC in renal tissue [1]: 850 µg·h/g; renal toxicity compared to PMB [2]: significantly reduced renal toxicity compared to PMB; renal toxicity compared to PMB [3]: significantly reduced renal toxicity compared to PMB |
| Colistin [2 (Colistin)] | >64 | >64 | 0.25 | 16 | 0.5 | 1 | 32 | 64 | 0.25 | 0.25 | 4 | 16 | – |
| Polymyxin B [1 (PMB)] | >64 | 64 | 0.25 | 8 | 0.25 | 0.5 | 32 | 8 | 0.25 | 0.25 | 4 | 16 | MIC A.baumannii NCTC 13301 (A.baumannii NCTC 13301; listed as PMB): 0.25 µg/mL; drop in colony forming units (CFU) from the pre-treatment level (A. baumannii NCTC13301): greater than 2 log10; MIC K.pneumoniae IHMA652780 (K.pneumoniae IHMA652780): 4 µg/mL; plasma AUCinf [4]: 57000 ng·h/mL; MIC A.baumannii IHMA 851735 (A.baumannii IHMA 851735): 4 µg/mL; Histopathology score – number of animals Normal ([5]; 12.5 mg/kg, 24hr, n = 5): 5; Histopathology score – number of animals Minimal ([5]; 12.5 mg/kg, 4 days, n = 5): 1; Histopathology score – number of animals Normal ([5]; 12.5 mg/kg, 4 days, n = 5): 4; Histopathology score – number of animals Mild ([5]; 25 mg/kg, 24hr, n = 5): 2; Histopathology score – number of animals Minimal ([5]; 25 mg/kg, 24hr, n = 5): 2; Histopathology score – number of animals Moderate ([5]; 25 mg/kg, 24hr, n = 5): 1 ^*; Histopathology score – number of animals Minimal ([5]; 25 mg/kg, 4 days, n = 5): 2; kidney histopathology ([5]; mouse, 25 mg/kg sc three times per day, 24 hr and 4 day studies): significant histopathology changes in the kidneys |
